Experiments:
HEY1 mRNA = HEY1 mRNA by RT-qPCR, VTC-037 GSCs; format: cell-based, human; details: 50 μM, 24 h, compared to JM2-scrambled
Method: (§1) RNA was extracted using the PureLink^TM RNA mini extraction kit (Thermo Fisher) and on-column DNA digestion was completed using PureLink^TM DNase according to the manufacturer’s instructions. RNA was reverse transcribed to generate cDNA using the iScript^TM Reverse Transcription SuperMix for RT-qPCR kit (Bio-Rad Laboratories). Real-time PCR was performed using the SYBR select Master Mix for CFX (Thermo Fisher) in hard-shell 96-well PCR plates (Bio-Rad Laboratories) on a CFX Connect Real Time System (Bio-Rad Laboratories). Primer sequences used were: hNOTCH1_Fwd: 5’-CGCACAAGGTGTCTTCCAG-3’; hNOTCH1_Rev: 5’-CGGCGTGTGAGTTGATGA-3’; hHES1_Fwd: 5’-GGCTGGAGAGGCGGCTAA-3’; hHES1_Rev: 5’-[…]-3’; hHEY1_Fwd: 5’-[…]-3’; hHEY1_Rev: 5’-[…]-3’.

VTC-034 GSCs [1] = test: Limiting dilution analysis (ELDA), VTC-034 GSCs; format: cell-based, human; details: VTC-034, 100 μM every other day, 2 weeks; compared to JM2-scrambled or control
Method: (§2) GSCs and PDX GBM22 cells were plated as single cell suspension in low-attachment 96-well plates (GSCs: 100–500 cells per well; GBM22 cells: 500–2000 cells per well), using methods similar to those reported previously. Cells were then treated with peptides every other day. 2 weeks later, gliospheres were observed using phase contrast microscopy on a Revolve microscope (Echo Laboratories). The number of gliospheres was then determined, while the gliosphere size was assessed by diameter measurement. To evaluate stem cell frequency in GSCs, gliosphere formation assay was performed with limiting cell dilutions with cells plated at varying densities in low-attachment 96-well plates. Cells were treated with peptides every other day, and after 2 weeks, gliosphere-positive wells were observed and scored using phase contrast microscopy on a Revolve microscope. The stem cell frequency was analyzed using the online data analysis program ELDA (Extreme Limiting Dilution Analysis).
(§3) All quantification was performed on experiments repeated at least three times. Statistical analysis was conducted with GraphPad Prism (GraphPad Software). Data were analyzed for significance using Student’s t test, one-way ANOVA with Tukey’s multiple comparisons test, and presented as mean ± SD. […] Statistical significance between experimental groups was determined using chi-square (χ²) tests within the ELDA framework. […]

HES1 mRNA = HES1 mRNA by RT-qPCR, VTC-001 GSCs; format: cell-based, human; details: 50 μM, 24 h, compared to antennapedia alone
Method: as §1

Notch1 mRNA = Notch1 mRNA by RT-qPCR, VTC-037 GSCs; format: cell-based, human; details: 50 μM, 24 h
Method: as §1

VTC-037 GSCs [2] = test: Limiting dilution analysis (ELDA), VTC-037 GSCs; format: cell-based, human; details: VTC-037, 100 μM every other day, 2 weeks; compared to JM2-scrambled or control
Method: as §2, §3

VTC-037 GSCs [3] = test: Peptide uptake by confocal Z-stack with WGA, VTC-037 GSCs; format: in vitro ADME, human; details: 50 μM, 24 h, WGA membrane label
PDX GBM22 cells = test: Gliosphere formation assay, PDX GBM22 cells; format: cell-based, human; details: 100 μM every other day, 2 weeks
Method: as §2

VTC-034 GSCs [4] = test: Gliosphere formation assay, VTC-034 GSCs; format: cell-based, human; details: VTC-034, 10, 50 or 100 μM every other day, 2 weeks
Method: as §2

LN229/GSCs = test: MTS survival, LN229/GSCs; format: cell-based, human; details: 100 µM, 4 days
Method: Cells were plated in 96-well plates (2000–5000 cells per well) and treated the following day with TMZ (10, 50, or 100 μM), antennapedia, JM2-scrambled, or JM2 (10, 50, or 100 μM). After 4 days, cell viability was monitored following addition of MTS reagent (Promega) according to manufacturer’s instructions. The absorbance at 490 nm was measured using a SpectraMax i3 or iD3 microplate reader (Molecular Devices). For the caspase 3/7 activity assay, cells were plated in 96-well plates (2000 cells per well) and treated with TMZ or peptides as described above. The activity of caspase 3/7 was measured after 48 h using the Caspase-Glo® 3/7 assay (Promega) following the manufacturer’s instructions. Fold change of caspase 3/7 activity was defined as the ratio of caspase 3/7 luminescence in treated cells compared to controls.

## VFFKGVKDRVKGRSD [JM2]
HEY1 mRNA
  Hey1 mRNA expression: significantly decreased the expression of Notch downstream targets Hes1 and Hey1 at the transcription level
VTC-034 GSCs [1]
  GSC frequency / self-renewal (limiting dilution): significant decrease in VTC-001, VTC-034, and VTC-037 GSC frequency
HES1 mRNA
  Hes1 mRNA expression: significantly decreased the expression of Notch downstream targets Hes1 and Hey1 at the transcription level
Notch1 mRNA
  Notch1 mRNA level: not affected at the transcription level
VTC-037 GSCs [2]
  GSC frequency / self-renewal (limiting dilution): significant decrease in VTC-001, VTC-034, and VTC-037 GSC frequency
VTC-037 GSCs [3]
  Peptide enrichment within cells (Z-stack 3D projection): enrichment of JM2 (red) within cells
PDX GBM22 cells; n = 5
  GBM22-derived gliosphere size (diameter): significantly decreases GBM22-derived gliosphere size
PDX GBM22 cells; n = 6
  GBM22-derived gliosphere number: significantly decreases GBM22-derived gliosphere size as assessed by diameter measurement (Fig. 8C), and number
VTC-034 GSCs [4]
  GSC-dependent gliosphere formation: inhibits VTC-001, VTC-034, and VTC-037 GSC-dependent gliosphere formation in a dose-dependent manner
VTC-034 GSCs [4]; n = 4
  Gliosphere size (diameter): significant decrease in gliosphere size
VTC-034 GSCs [4]; n = 6
  Gliosphere number: significant decrease in gliosphere size as assessed by diameter measurement (Fig. 6B), and number
LN229/GSCs
  LN229/GSC survival (MTS): significantly decreased LN229/GSC survival after 4 days
